In test [1] the target is Human recombinant GST-PI3Kγ (Homo sapiens, UniProt P48736). Kind of test: High throughput PI3K lipid kinase assay (SPA, neomycin-coated beads). Format: biochemical. Conditions: 180 min at room temperature. An excerpt: a) High Throughput PI3K Lipid Kinase Assay (Binding Assay):
The efficacy of compounds of the invention in inhibiting the PI3K induced-lipid phosphorylation may be tested in the following binding assay.
The assay combines the scintillation proximity assay technology (SPA, Amersham) with the capacity of neomycin (a polycationic antibiotic) to bind phospholipids with high affinity and specificity. The Scintillation Proximity Assay is based on the properties of weakly emitting isotopes (such as ^3H, ^125I, ^33P). Coating SPA beads with neomycin allows the detection of phosphorylated lipid substrates after incubation with recombinant PI3K and radioactive ATP in the same well, by capturing the radioactive phospholipids to the SPA beads through their specific binding to neomycin.
To a 384 wells MTP containing 5 μl of the test compound of Formula (I) (solubilized in 6% DMSO; to yield a concentration of 100, 30, 10, 3, 1, 0.3, 0.1, 0.03, 0.01, 01 μM of the test compound), the following assay components are added. 1) 5 μl (58 ng) of Human recombinant GST-PI3Kγ (in Hepes 40 mM, pH 7.4, DTT 1 mM and ethyleneglycol 5%) 2) 10 μl of lipid micelles and 3) 10 μl of Kinase buffer ([^33P]γ-ATP 45 μM/60 nCi, MgCl2 30 mM, DTT 1 mM, β-Glycerophosphate 1 mM, Na3VO4 100 μM, Na Cholate 0.3%, in Hepes 40 mM, pH 7.4). After incubation at room temperature for 180 minutes, with gentle agitation, the reaction is stopped by addition of 60 μl of a solution containing 100 μg of neomycin-coated PVT SPA beads in PBS containing ATP 10 mM and EDTA 5 mM. The assay is further incubated at room temperature for 60 minutes with gentle agitation to allow binding of phospholipids to neomycin-SPA beads. After precipitation of the neomycin-coated PVT SPA beads for 5 minutes at 1500×g, radioactive PtdIns(3)P is quantified by scintillation counting in a Wallac MicroBeta™ plate counter.
The values indicated in Table I below refer to the IC50 (μM) with respect to PI3Kγ, i.e. the amount necessary to achieve 50% inhibition of said target. Said values show a considerable inhibitory potency of thiazole compounds with regard to PI3Kγ.

Test [2] deals with Akt/PKB phosphorylation in Raw 264-7 macrophages. Kind of test: Cell based ELISA of Akt/PKB phosphorylation after Complement 5a stimulation. Conditions: Mus musculus, RAW264.7, 50 nM Complement 5a for 5 minutes, inhibitor pretreatment 20 minutes, read-out: Cell Assay (P-Akt, Elisa) IC50. The procedure:
b) Cell Based ELISA to Monitor PI3K Inhibition:
The efficacy of compounds of the invention in inhibiting the PI3K induced Akt/PKB phosphorylation may be tested in the following cell based assay.
Measurement of Akt/PKB phosphorylation in macrophages after stimulation with Complement 5a: Raw 264: Raw 264-7 macrophages (cultured in DMEM-F12 medium containing 10% Fetal Calf serum and antibiotics) are plated at 20'000 cells/well in a 96 MTP 24 h before cell stimulation. Prior to the stimulation with 50 nM of Complement 5a during 5 minutes, Cells are serum starved for 2 h, and pretreated with inhibitors for 20 minutes. After stimulation cells are fixed in 4% formaldehyde for 20 minutes and washed 3 times in PBS containing 1% Triton X-100 (PBS/Triton). […] Next, phosphorylated Akt/PKB is detected by an overnight incubation at 4° C. with primary antibody (anti phospho Serine 473 Akt IHC, Cell Signaling) diluted 800-fold in PBS/Triton, containing 5% bovine serum albumin (BSA). After 3 washes in PBS/Triton, cells are incubated for 60 minutes with a peroxidase conjugated goat-anti-rabbit secondary antibody (1/400 dilution in PBS/Triton, containing 5% BSA), washed 3 times in PBS/Triton, and 2 times in PBS and further incubated in 100 μl of luminescent substrate reagent solution (Pierce) for 2 minutes, followed by the reading (1 s/well). […]
On the technique in general: ELISA stands for enzyme-linked immunosorbent assay.

Test [3] has as its system Class I PI3-kinases. Conditions: Fruman et al., 1998; read-out: IC50 against each of the various Class I PI3-kinases; cited from earlier work.

By IC50 is commonly meant the point on the concentration scale where inhibition reaches its midpoint.

Human recombinant GST-PI3Kγ, sequence (P48736 whole entry): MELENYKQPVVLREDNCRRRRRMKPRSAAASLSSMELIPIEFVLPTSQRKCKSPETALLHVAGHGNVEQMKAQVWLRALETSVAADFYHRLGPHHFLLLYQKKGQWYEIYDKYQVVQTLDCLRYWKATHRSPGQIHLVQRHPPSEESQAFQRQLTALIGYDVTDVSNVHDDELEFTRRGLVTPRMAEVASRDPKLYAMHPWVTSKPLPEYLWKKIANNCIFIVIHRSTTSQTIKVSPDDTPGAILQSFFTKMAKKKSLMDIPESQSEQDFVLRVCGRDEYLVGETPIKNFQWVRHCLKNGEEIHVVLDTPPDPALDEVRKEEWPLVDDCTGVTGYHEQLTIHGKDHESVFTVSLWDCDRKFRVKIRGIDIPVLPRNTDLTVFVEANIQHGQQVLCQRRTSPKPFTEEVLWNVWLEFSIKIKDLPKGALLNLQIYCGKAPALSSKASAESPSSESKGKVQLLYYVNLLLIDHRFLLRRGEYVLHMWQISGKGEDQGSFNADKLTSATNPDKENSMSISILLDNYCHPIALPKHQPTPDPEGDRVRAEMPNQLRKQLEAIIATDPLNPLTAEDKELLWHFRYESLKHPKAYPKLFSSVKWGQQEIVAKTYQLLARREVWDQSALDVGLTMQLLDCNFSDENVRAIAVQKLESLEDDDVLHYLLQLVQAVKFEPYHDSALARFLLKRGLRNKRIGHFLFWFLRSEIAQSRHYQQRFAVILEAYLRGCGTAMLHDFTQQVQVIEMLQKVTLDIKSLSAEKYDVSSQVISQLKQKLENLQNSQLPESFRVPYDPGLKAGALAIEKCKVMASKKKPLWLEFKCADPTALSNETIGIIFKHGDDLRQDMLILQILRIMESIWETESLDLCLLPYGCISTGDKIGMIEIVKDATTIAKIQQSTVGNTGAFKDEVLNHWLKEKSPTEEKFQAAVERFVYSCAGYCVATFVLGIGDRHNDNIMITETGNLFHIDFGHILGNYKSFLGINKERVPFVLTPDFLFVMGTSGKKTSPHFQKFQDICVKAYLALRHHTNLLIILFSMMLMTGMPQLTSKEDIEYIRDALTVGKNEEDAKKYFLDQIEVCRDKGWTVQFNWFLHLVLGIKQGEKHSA

Regarding `CC(=O)Nc1nc(C)c(-c2cnn(C)c2)s1` [Example 1, N-[4-methyl-5-(1-methyl-1H-pyrazol-4-yl)-1,3-thiazol-2-yl]acetamide], the 50% inhibitory concentration (IC50) in test [1] was found to be 1340 nM. In the case of `CC(=O)Nc1nc(C)c(-c2cn[nH]c2)s1` [Example 3, N-[4-methyl-5-(1H-pyrazol-4-yl)-1,3-thiazol-2-yl]acetamide], in test [1], the IC50 turned out to be 413 nM. Still for that read-out and setting: the result for `CC(=O)Nc1nc(C)c(-c2cnn(S(=O)(=O)c3ccc(C(=O)O)cc3)c2)s1` [Example 14, 4-({4-[2-(acetylamino)-4-methyl-1,3-thiazol-5-yl]-1H-pyrazol-1-yl}sulfonyl)benzoic acid] reads 708 nM; that for `CC(=O)Nc1nc(C)c(-c2cnn(C(=O)NCCN(C)C)c2)s1` [Example 5, 4-[2-(acetylamino)-4-methyl-1,3-thiazol-5-yl]-N-[2-(dimethylamino)ethyl]-1H-pyrazole-1-carboxamide], 1230 nM. Take `CC(=O)Nc1nc(C)c(-c2cnn(S(=O)(=O)c3cn(C)cn3)c2)s1` [Example 8, N-(4-methyl-5-{1-[(1-methyl-1H-imidazol-4-yl)sulfonyl]-1H-pyrazol-4-yl}-1,3-thiazol-2-yl)acetamide]: the values for the half-inhibitory concentration (IC50) in test [1] and in test [2] were 111 nM and 850 nM, respectively. On to wortmannin, for which the half-inhibitory concentration (IC50) in test [3] was 1 to 10 nM. As to `COc1ccc(S(=O)(=O)n2cc(-c3sc(NC(C)=O)nc3C)cn2)cn1` [Example 7, N-(5-{1-[(6-methoxypyridin-3-yl)sulfonyl]-1H-pyrazol-4-yl}-4-methyl-1,3-thiazol-2-yl)acetamide], the IC50 in test [1] was found to be 282 nM.

The values are drawn from US20090029997A1, “Thiazole Derivatives and Use Thereof” (LABORATOIRES SERONO SA, priority 2006, published 2009).
